“Also recorded” adds a separate entry of the source.

The test system of data set [1] is U251-MG cells. The experiment in a line: TUNEL assay on cultured cells treated with spA4-anti-hTR. Type of data set: cell-based, human. Particulars: treated cells fixed and stained.
The subject of another data set is U373 cells. As to the kind of experiment: Viable cell count (trypan blue), daily oligonucleotide plus lipofectamine. Type of data set: cell-based, human. As for the experimental part:
(§1) Cells (10,000/well) were seeded on 96 well tissue culture dishes, and treated every 24 hours. A 10× concentrated mixture of oligonucleotides plus lipofectamine in water was prepared containing 5 micromolar oligonucleotide and 80 microgram per ml lipofectamine™ (Gibco/BRL) and incubated for 10 min at room temperature. Media was removed from the cells, 10 microliters of the oligonucleotide/lipofectamine mixture was added directly to the cultured cells followed by 90 microliters of media plus serum. The media was changed with oligonucleotide/lipofectamine treatments every 24 h. Cells were passaged when the control cells reached confluency, and viable cells were counted after staining with Trypan Blue (GibcoBRL). The numbers of cells treated only with lipofectamine were used as the control to calculate percentages of cell survival or viability.

A further data set has as its system U251-MG tumors. As to the kind of experiment: In situ end-labeling (TUNEL) of DNA in subcutaneous xenografts. The data set is classed as in vivo, nude mice. Particulars: 5 nmol every day for 7 days. From the text:
FIG. 14. In situ end-labeling of DNA in subcutaneous xenografts of nude mice. After treatment with oligonucleotides (5 nmol, every day) for 7 days, the mice were sacrificed and the subcutaneous mass was removed, frozen, and sectioned on a cryostat. The tumor specimens from U251-MG cells were counterstained by hematoxylin and eosin following the TUNEL technique. Arrows show representatives of tumor cells positive for DNA fragmentation (×400). (above) spA4-anti-(M6)hTR, 7 Day; (below) spA4-anti-hTR, 7 Day.
To further determine whether treatment with oligonucleotides induced apoptosis, tumor cells and tissues were stained by the terminal deoxynucleotidyl transferase (TdT)-mediated DUTP nick end labeling (TUNEL) technique using Apo-Tag kit (peroxidase conjugated) (Oncor Inc., Gaithersburg, Md.). The staining of apoptotic cells was done on U373MG cells. Oligonucleotides with lipofectamine was added to the cells every day. The final concentrations were 0.5 micromolar and 8 microgram/ml for oligo and lipofectamine, respectively. […]
U251-MG and U373 MG tumor cells (1.0×10^6 cells in 0.1 ml serum free DMEM and 0.1 ml Matrigel) were injected subcutaneously into the right flank of 8-12 week-old female Balb/c nude mice (5 mice for each treatment group). Tumor growth was monitored using calipers every 2- or 3-days. Tumor volume (V) was calculated as (L×W^2)/2, where L=length (mm) and W=width (mm). […]

The test system of data set [2] is U251-MG cells. The experiment in a line: Cell viability assay, trypan blue dye exclusion, oligonucleotide in water every 12 hr. Type of data set: cell-based, human. The following applies: 5 micromolar every 12 hr. As to the method:
(§2) The cytotoxic effect of 2-5A activator antisense complexes on tumor cells was determined using the trypan blue dye exclusion assay. Tumor cells were seeded at 10^4 cells/well (0.1 ml) in 96-well flat-bottomed plates and incubated overnight at 37° C. Then, oligonucleotides (5 micromolar) in water were added into cells every 12 hr. On successive days the cells were harvested and 25% of the total was examined microscopically to determine the percentage of viable cells, another 25% was replated to continue treatment and the remaining 50% were used for the TRAP assay.
Knowing that hTR could be inactivated by the 2-5A antisense treatment, U251-MG cells were treated every 12 hours over a 14 day period with the same three oligonucleotides. 79% of the cells treated with spA4-anti-hTR were killed over the 14 day period with a significant (50%) reduction in cell viability after only 5 days. […] These experiments have since been repeated on a number of occasions with U251-MG cells to test new batches of oligonucleotides, always with the same results. […] Thus, after 14 days from the initial treatment with spA4-anti-hTR, the viability of U251-MG cells, as shown by Trypan-blue exclusion assays, was suppressed in all cases.

Another data set has as its system RCC tumors. As to the kind of experiment: Subcutaneous tumors in nude mice, intratumoral oligonucleotide plus lipofectamine. Type of data set: in vivo. As to the method: (§3) RCC and A375 tumor cells (500,000 cells per tumor) were injected subcutaneously. The treatments, begun 8 days after tumor cell inoculation, was with 40 microliter of 25 micromolar SpA4-anti-hTR plus 1 microliter (2 microgram) lipofectamine injected in each tumor every day.

In another data set the test system is A375 tumors. The data set is described as above. The data set is classed as in vivo. As to the method: as §3
The test system of data set [3] is normal diploid human fibroblasts (MRC5). The experiment in a line: Viable cell count, daily oligonucleotide plus lipofectamine. Type of data set: cell-based. Particulars: MRC5, 0.5 micromolar daily plus lipofectamine, 8 days. As for the experimental part:
as §1
(§4) For the experiments described below, lipofectamine was used to enhance the uptake of the oligonucleotides into cells (Williams et al., 1996, Leukemia 10:[…]). […] Using this protocol for 8 days, SpA4-anti-hTR reduced cell viability by 9% and 35% in the normal human lung cell line, WI 38, and in normal diploid human fibroblasts (MRC5), respectively, while causing a 90% reduction in the viability of U373 cells.

Data set [4] concerns normal human lung cell line, WI 38. Described as above. Type of data set: cell-based. Particulars: WI 38, 0.5 micromolar daily plus lipofectamine, 8 days. As to the method:
as §1, §4

The subject of data set [5] is U373 human malignant glioma cells. The experiment in a line: TUNEL assay for apoptosis, oligonucleotide plus lipofectamine. Type of data set: cell-based. As for the experimental part: To further determine whether treatment with oligonucleotides induced apoptosis, tumor cells and tissues were stained by the terminal deoxynucleotidyl transferase (TdT)-mediated DUTP nick end labeling (TUNEL) technique using Apo-Tag kit (peroxidase conjugated) (Oncor Inc., Gaithersburg, Md.). The staining of apoptotic cells was done on U373MG cells. Oligonucleotides with lipofectamine was added to the cells every day. The final concentrations were 0.5 micromolar and 8 microgram/ml for oligo and lipofectamine, respectively. Pictures were taken after 3 days of treatment.

For data set [6], the system named is normal human astrocytes (PIN). As to the kind of experiment: Cell viability assay, trypan blue, same protocol on telomerase-negative normal astrocytes. Particulars: same protocol as the tumor cells, over the treatment period. Type of data set: cell-based. As to the method:
as §2

[7] abbreviates: U373, 0.5 micromolar daily plus lipofectamine, 3 days.

Regarding “Sp5′A2′p(5′A2p)3-[(Bu)p]2-5′GCG CGG GGA GCA AAA GCA C3′-3′T5′ (antisense GCGCGGGGAGCAAAAGCAC; 5'-thiophosphate 2-5A tetramer, butanediol linkers, 3'-3'T cap, chemistry not fully specified) [spA4-anti-hTR, 2-5A tetramer linked by butanediol linkers to 19-mer antisense against human telomerase RNA nucleotides 76 to 94]”, the “apoptotic cell death by TUNEL (in words)” value in the data set with U251-MG cells [1] is given as “increased number of darkly staining nuclei”. Further, the “increase in the anti-tumor cell effect by use of lipofectamine” value with U373 cells (0.5 micromolar once a day with lipofectamine versus without) is listed as “about 10 fold”. In addition, in the data set with U373 cells (setting [7]), the “effect on growth/viability (in words)” value was “specifically suppressed growth”. Also, the reduction in viability entry was “about 60%” with U373 cells (setting [7]) and 90% with U373 cells (U373, 0.5 micromolar daily plus lipofectamine, 8 days). In addition, in the data set with U373 cells (U373, 0.5 micromolar daily plus lipofectamine, 7 days, two separate cultures), the “cell viability reduced to” value is less than 2%. Further, in the data set with U373 cells (with lipofectamine versus without), the “reduction of the dose required to block proliferation and survival of tumor cells using lipofectamine” value is 10 fold. In the data set with U251-MG tumors, the “apoptotic cells observed in tumors (TUNEL)” value was “many apoptotic cells”. In the data set with U251-MG cells [2] (14 days), the “cell death / effect on viability (in words)” value is on record as “vast majority of cells can be killed”. Besides, the “reduction in cell viability” value is given as 50% in the data set on U251-MG cells [2] (after 5 days); 35% in data set [3]; 9% in data set [4]; “less than 5%” in [6]; 2-3% in [6] (listed as SpA4-anti-hTR). In the data set on U251-MG cells [2] (over the 14 day period), this substance yielded a cells killed of 79%. Also, the “tumor cell growth (in words)” value is “Suppression” in the data set with RCC tumors (RCC subcutaneous, oligonucleotide plus lipofectamine from day 8) and “Suppression” in the data set on A375 tumors (A375 subcutaneous, oligonucleotide plus lipofectamine from day 8). The “increase in tumor size” value is 14% in the data set on RCC tumors (RCC, 40 microliter of 25 micromolar plus lipofectamine intratumoral daily, seven day period) and 17% with A375 tumors (A375, 40 microliter of 25 micromolar plus lipofectamine intratumoral daily, seven days). Besides, the “apoptosis by TUNEL (in words)” value in data set [5] (0.5 micromolar daily plus lipofectamine for 3 days) was “apoptosis was clearly visible”. Besides, the “apoptosis by TUNEL assay for DNA breakage (in words)” value in data set [5] (over time of treatment) was “time-dependent increase in apoptotic cells; also recorded: caused apoptosis”.

For the origin of these results see patent US6468983B2, “RNase L activators and antisense oligonucleotides effective to treat telomerase-expressing malignancies” (The Cleveland Clinic Foundation, priority 1997, dated 2002).
